Drawing on ChEMBL document CHEMBL3621199, “Structure-based approaches towards identification of fragments for the low-druggability ATAD2 bromodomain” (Medchemcomm, 2014), this text covers Kd for five compounds.

Broadly, the Kd is the equilibrium constant for the complex coming apart.

The experiment concerns the target T1, ATPase family AAA domain-containing protein 2 (Homo sapiens, UniProt Q6PL18).
T1 sequence (Q6PL18 whole entry): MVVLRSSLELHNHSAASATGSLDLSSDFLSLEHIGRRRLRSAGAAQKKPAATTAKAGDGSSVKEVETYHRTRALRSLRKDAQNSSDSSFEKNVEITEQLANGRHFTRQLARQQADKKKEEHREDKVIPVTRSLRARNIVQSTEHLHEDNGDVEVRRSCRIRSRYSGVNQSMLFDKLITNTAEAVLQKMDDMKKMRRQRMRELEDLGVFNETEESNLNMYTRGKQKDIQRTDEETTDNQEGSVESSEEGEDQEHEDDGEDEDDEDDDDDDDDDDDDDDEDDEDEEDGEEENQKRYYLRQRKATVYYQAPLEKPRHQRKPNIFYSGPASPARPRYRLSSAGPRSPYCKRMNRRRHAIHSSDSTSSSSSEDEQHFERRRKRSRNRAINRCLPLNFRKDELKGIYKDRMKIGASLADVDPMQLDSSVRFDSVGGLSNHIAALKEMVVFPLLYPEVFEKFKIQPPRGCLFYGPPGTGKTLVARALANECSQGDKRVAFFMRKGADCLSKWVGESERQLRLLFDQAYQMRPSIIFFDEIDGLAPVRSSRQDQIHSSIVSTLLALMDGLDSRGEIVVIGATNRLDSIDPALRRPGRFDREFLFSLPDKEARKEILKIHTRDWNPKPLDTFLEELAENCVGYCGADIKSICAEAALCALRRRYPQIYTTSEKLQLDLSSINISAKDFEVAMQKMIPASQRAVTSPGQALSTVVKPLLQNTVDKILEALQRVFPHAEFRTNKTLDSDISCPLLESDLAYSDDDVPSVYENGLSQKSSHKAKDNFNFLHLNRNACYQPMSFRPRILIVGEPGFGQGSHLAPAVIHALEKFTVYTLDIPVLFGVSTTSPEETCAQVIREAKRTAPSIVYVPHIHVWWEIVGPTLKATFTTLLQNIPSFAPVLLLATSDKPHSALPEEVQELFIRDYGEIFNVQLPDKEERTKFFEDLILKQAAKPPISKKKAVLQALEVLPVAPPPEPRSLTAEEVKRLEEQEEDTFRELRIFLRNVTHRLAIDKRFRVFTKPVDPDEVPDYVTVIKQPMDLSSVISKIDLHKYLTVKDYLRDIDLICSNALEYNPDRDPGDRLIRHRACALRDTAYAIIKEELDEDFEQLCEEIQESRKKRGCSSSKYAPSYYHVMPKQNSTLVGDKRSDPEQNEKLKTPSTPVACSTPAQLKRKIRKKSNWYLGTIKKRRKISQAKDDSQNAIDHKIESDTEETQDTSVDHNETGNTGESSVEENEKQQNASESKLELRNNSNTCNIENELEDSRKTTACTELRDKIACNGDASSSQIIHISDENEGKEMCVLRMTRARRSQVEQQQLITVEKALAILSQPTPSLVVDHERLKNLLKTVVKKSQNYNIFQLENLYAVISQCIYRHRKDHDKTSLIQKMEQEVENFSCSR
Kind of experiment: Binding affinity to recombinant human ATAD2 (982 to 1108 amino acids) bromodomain […] at methyl groups of leucine, valine, isoleucine, methionine expressed in Escherichia coli BL21 (DE3) by NMR titration.
As to `Cc1cn([C@@H]2O[C@H](CO)[C@@H](O)[C@H]2O)c(=O)[nH]c1=O`, the dissociation constant (Kd) stood at 21 mM.

`Cc1cn([C@@H]2O[C@H](CN)[C@@H](O)[C@H]2O)c(=O)[nH]c1=O`: the dissociation constant Kd was 17 mM. Regarding `Cc1cn([C@H]2CC[C@@H](CO)O2)c(=O)[nH]c1=O`, the dissociation constant (Kd) is 18 mM. In the case of `Cc1cn([C@H]2C[C@H](O)[C@@H](CO)O2)c(=O)[nH]c1=O` [DOXRIBTIMINE] it was 10 mM.

For `Cc1c[nH]c(=O)[nH]c1=O` [THYMINE], the dissociation constant (Kd) is 10 mM.
